{
  "source": "patent US9993002B2",
  "about": "“1,2,3-thiadiazol-5yl-urea derivatives, use thereof for regulating plant senescence and preparations containing these derivatives” (USTAV EXPERIMENTALNI BOTANIKY AV CR, V.V.I., priority 2014, dated 2018)",
  "key": {"winter oilseed rape": {"tested_on": "winter oilseed rape", "test": "Field experiment, winter oilseed rape, foliar spray", "assay_type": "in vivo", "settings": "25 μM foliar spray, BBCH 50", "protocol": "(§1) All field experiments were done according to criteria for Good Experimental Practices. Six repetitions (10 m^2 each) were used per one variant. Field trials were not treated by growth regulators and fungicides, except of applied compound 1-furfuryl-[1,2,3]thiadiazol-5-yl-urea. N-furfuryl-N′-1,2,3-thiadiazol-5-yl-urea was applied once at the precise time (extension growth BBCH 50), by foliar spray at a concentration of 25 μM. For each variant at least 50 plants were used to obtain morphology parameters. Statistical evaluation was executed in stat. program PAST v. 2.17c."}, "spring barley": {"tested_on": "spring barley", "test": "Field experiments, spring barley, years 2014 and 2015, foliar spray", "assay_type": "in vivo", "protocol": "as §1\nAll field experiments were done according to criteria for Good Experimental Practices as described in example 17. N-furfuryl-N′-1,2,3-thiadiazol-5-yl-urea was applied once at the precise time (extension growth BBCH 50), by foliar spray at a concentration of 25 μM in a year 2014 and at a concentration of 5 μM in a year 2015. For each variant at least 50 plants were used to obtain morphology parameters. Statistical evaluation was executed in stat. program PAST v. 2.17c."}, "[1]": {"tested_on": "detached leaf segments of Triticum aestivum cv. Hereward", "test": "Senescence bioassay on wheat leaf segments in dark conditions", "settings": "Triticum aestivum, foliar; dark, 96 h, 25° C., chlorophyll absorbance 665 nm; read-out: Senescence bioassay (IC50)", "protocol": "(§2) Seeds of winter wheat, Triticum aestivum cv. Hereward, were washed under running water for 24 hours and then sown on perlite soaked with Hogland's solution. They were placed in the growth chamber at 25° C. with a 16/8 h light period at 50 μmol·m^−2·s^−1. After 7 days, the first leaf was fully developed and the second leaf had started to grow. A tip section of the first leaf, approximately 4 cm long, was removed from 4 seedlings and trimmed slightly to a combined weight of 100 mg. The basal ends of the four leaf tips were placed into the 96-wells plate containing 150 μL of the tested derivative solution each. The entire plate was inserted into a plastic box lined with paper tissues soaked in distilled water to prevent leaf sections from drying out. After 96 h incubation in the dark at 25° C., the leaves were removed and chlorophyll extracted by heating at 80° C. for 10 min in 5 mL of 80% ethanol (v/v). The sample volume was then restored to 5 mL by the addition of 80% ethanol (v/v). The absorbance of the extract was recorded at 665 nm. In addition, chlorophyll extracts from fresh leaves and leaf tips incubated in deionised water were measured. The results are means of five replicates and the entire test was repeated at least twice. […] The compounds to be tested were dissolved in dimethylsulfoxide (DMSO) and the solution brought up to 10^−3 M with distilled water. […] The IC50 values were determined for standard (BAP) and novel tested compounds."}, "[2]": {"tested_on": "detached leaf segments of Triticum aestivum cv. Hereward", "test": "Senescence bioassay on wheat leaf segments in dark/light conditions", "settings": "foliar, 168 h, dark/light 8/16, 22° C., 7 days, read-out: Senescence bioassay (IC50)", "protocol": "as §2\nThe ability of the novel compounds to retard chlorophyll degradation in detached wheat leaves was tested also in the light conditions. The experiment was performed as described in Example 7 with modifications as follows—the incubation of the leaves with the compounds was done in the dark/light conditions 8/16 (light—100 μmol·m^−2·s^−1) at 22° C. for 7 days. […] The newly prepared substituted 1,2,3-thiadiazol-5-yl urea derivatives of the invention are much stronger anti-senescent compounds in comparison to the BAP in retarding senescence under optimal (dark/light) conditions."}, "wheat leaves": {"tested_on": "wheat leaves", "test": "Ethylene production (defoliating activity) assay", "parameters": "species or system Triticum aestivum", "settings": "10 μM, 96 h in the dark at 25° C.; control 270 (±15)", "protocol": "We investigated the effect of the compounds of the invention on ethylene production in wheat leaves. The leaves were obtained as described in Example 8, placed in 5 mL glass vials and immersed at 10 μM solutions of tested compounds of the invention or TDZ. Distilled water was used as a control treatment. After 96 h incubation in the dark at 25° C., 1 mL of air was taken from the vials and content of ethylene in it was determined using gas chromatography with the flame ionization detector (GC-FID) method described by Fišerová et al. (Fišerová H, Kula E, Klemš M, Reinöhl V (2001) Phytohormones as indicators of the degree of damage in birch (Betula pendula). Biológia 56: 405-409)."}, "[3]": {"tested_on": "Arabidopsis thaliana (wild-type Col-0)", "test": "Root growth and lateral root formation of Arabidopsis", "assay_type": "in vivo", "settings": "10 nM, two weeks after transfer", "protocol": "To investigate in vivo effect of the new derivatives on the root growth and development, seeds of Arabidopsis thaliana (wild-type Col-0) were surface sterilized and sown on vertical plates on half-strength Murashige-Skoog medium (supplied with 0.1% sucrose and 6 g/L phytagel) containing 10 nM BAP or 10 nM 1,2,3-thiadiazol-5-yl-urea derivative, or 0.01% DMSO (solvent control). After vernalization (4 days in the dark, 4° C.) plates were transferred into the growth chamber (22° C., 16/8 light/dark). Two weeks after transfer, seedlings were photographed and root elongation and lateral root formation was scored using Scion image software (Scion Corp., Frederick, Md., USA). At least 40 plants were measured for each treatment."}, "[4]": {"tested_on": "detached leaves of Triticum aestivum cv. Hereward", "test": "Membrane lipid peroxidation (MDA, TBA method) in detached wheat leaves in the dark", "settings": "four days in the dark", "protocol": "A typical symptom associated with senescence as a direct consequence of increased reactive oxygen species is membrane lipid peroxidation which produces malondialdehyde (MDA). Therefore the levels of MDA, a decomposition product of lipid peroxidation, were measured in detached wheat leaves that were exposed to the prepared novel derivatives or BAP for four days in the dark as described in Example 7. MDA levels were measured using a thiobarbituric acid (TBA) method. In detail, 100 mg of fresh plant material was homogenized by high speed shaking in a ball mill (MM301, Retsch, Germany) with 1 mL of 70% methanol. The crude extract was centrifuged at 10,000×g for 5 min, and 100 μL aliquot of supernatant was vortexed with 100 μL of 0.5% (w/v) TBA containing 0.1% (w/v) trichloroacetic acid, and the resulting solution was then incubated for 30 min at 95° C. The samples were quickly cooled on ice and centrifuged for 5 min at 1000 g. The absorbance of supernatant was measured at 532 nm with background subtraction at 600 nm and the amount of MDA-TBA complex was calculated from the coefficient of absorbance 155 mM^−1 cm^−1."}, "[5]": {"test": "Toxicity towards human skin fibroblasts (Calcein AM assay)", "assay_type": "cell-based", "protocol": "Cytotoxicity of the compounds to human skin fibroblasts (BJ cell line) was determined in a standard Calceinovém AM test. Cells were maintained in plastic tissue culture flasks and grown in Dulbecco's modified Eagle's medium for cell culture (DMEM) at 37° C. in 5% CO2 and 100% humidity. Cells were placed into 96-well microtiter plates (Nunc, Denmark) and after 12 hours pre-incubation, the tested compound was added to a final concentration ranging from […]. Cells were incubated for 72 hours. At the end of incubation period Calcein AM was added in PBS to a final concentration of […]. After 1 hour of incubation fluorescence was measured at 485/538 nm (ex/em wavelength) using Fluoroskan Ascent (Labsystems, Finland). IC50 values (the concentration causing reduction of calcein AM conversion to 50%) were calculated from the curves obtained. All experiments were repeated four times with a maximum deviation of 15%. Due to the limited solubility of substances in water, all the tested compounds were dissolved in DMSO and diluted with water to a final concentration."}},
  "data": [
    {"compound": "O=C(NCc1ccco1)Nc1cnns1", "note": "[N-furfuryl-N′-1,2,3-thiadiazol-5-yl-urea]", "values": [
      {"measurement": "Seed yield, % of control", "setting": "winter oilseed rape", "value": 120.9, "unit": "%"},
      {"measurement": "WTK, % of control", "setting": "winter oilseed rape", "value": 110, "unit": "%"},
      {"measurement": "Seed yield, % of control", "setting": "spring barley; Year 2014, 25 μM foliar spray", "value": 104.8, "unit": "%"},
      {"measurement": "grains per ear, % of control", "setting": "spring barley; Year 2014, 25 μM foliar spray", "value": 104.6, "unit": "%"},
      {"measurement": "Seed yield, % of control", "setting": "spring barley; Year 2015, 5 μM foliar spray", "value": 106.8, "unit": "%"}
    ]},
    {"compound": "COCCCNC(=O)Nc1cnns1", "note": "[Compound 7, 1-(3-methoxy-propyl)-3-[1,2,3]thiadiazol-5-yl-urea]", "values": [
      {"measurement": "IC50", "setting": "[1]", "value": 11.4, "unit": "µM"},
      {"measurement": "IC50", "setting": "[2]", "value": 0.4, "unit": "µM"},
      {"measurement": "Ethylene produced", "setting": "wheat leaves", "value": "312 (±18) nL/g FW"},
      {"measurement": "Lateral root number", "setting": "[3]", "value": "14 (±10)"},
      {"measurement": "Primary root lenght", "setting": "[3]", "value": "40 (±10) mm"},
      {"measurement": "MDA", "setting": "[4]", "value": "14.4 (±0.8) nmol/g FW"},
      {"measurement": "CC50 at 72 h", "setting": "[5]", "value": "> 100", "unit": "µM"}
    ]}
  ]
}
